# Test results taken from the supplement of paper PMC4932681.
# Columns and labels:
# Assay in all cases: viability inhibition at highest dose (% inhibition); higher = more growth inhibition
# T-47D = settings: 72 h
# Method: (§1)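 Percent inhibition of viability (CellTiter-Glo, 72 h) at the highest tested concentration (D5), normalised to DMSO (0%) and 100 µM benzethonium chloride (100%). Resistant lines and the 'in 1µM tamoxifen' arms were tested in 1 µM 4-OH-tamoxifen.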
# MCF-7 Tam1 = settings: 4-OH-tamoxifen in medium 1 µM; 72 h
# Method: as §1
# BT-474 Tam1 = settings: 4-OH-tamoxifen in medium 1 µM; 72 h
# Method: as §1
# BT-474 Tam2 = settings: 4-OH-tamoxifen in medium 1 µM; 72 h
# Method: as §1
# MCF-7 = settings: 72 h
# Method: as §1
# ZR-75-1 Tam2 = settings: 4-OH-tamoxifen in medium 1 µM; 72 h
# Method: as §1
# T-47D Tam2 = settings: 4-OH-tamoxifen in medium 1 µM; 72 h
# Method: as §1
# ZR-75-1 = settings: 72 h
# Method: as §1
# BT-474 = settings: 72 h
# Method: as §1
# ZR-75-1 Tam1 = settings: 4-OH-tamoxifen in medium 1 µM; 72 h
# Method: as §1
# T-47D Tam1 = settings: 4-OH-tamoxifen in medium 1 µM; 72 h
# Method: as §1
SMILES,viability inhibition at highest dose (T-47D; 4-OH-tamoxifen in medium 0 µM),viability inhibition at highest dose (T-47D; 4-OH-tamoxifen in medium 1 µM),viability inhibition at highest dose (MCF-7 Tam1),viability inhibition at highest dose (BT-474 Tam1),viability inhibition at highest dose (BT-474 Tam2),viability inhibition at highest dose (MCF-7; 4-OH-tamoxifen in medium 0 µM),viability inhibition at highest dose (MCF-7; 4-OH-tamoxifen in medium 1 µM),viability inhibition at highest dose (ZR-75-1 Tam2),viability inhibition at highest dose (T-47D Tam2),viability inhibition at highest dose (ZR-75-1; 4-OH-tamoxifen in medium 0 µM),viability inhibition at highest dose (ZR-75-1; 4-OH-tamoxifen in medium 1 µM),viability inhibition at highest dose (BT-474; 4-OH-tamoxifen in medium 0 µM),viability inhibition at highest dose (BT-474; 4-OH-tamoxifen in medium 1 µM),viability inhibition at highest dose (ZR-75-1 Tam1),viability inhibition at highest dose (T-47D Tam1)
S=c1[nH]cnc2nc[nH]c12 [Mercaptopurine] (drug 10000 nM),3.17,-0.759,11.9,3.48,6.87,18.1,27.8,18,12.1,39.5,6.71,3.7,13.8,35.5,11.9
COc1cc(Nc2ncc(F)c(Nc3ccc4c(n3)N(COP(=O)(O)O)C(=O)C(C)(C)O4)n2)cc(OC)c1OC (drug 10000 nM),40.2,36.8,47.8,55.4,2.03,34.7,70.4,31.6,47.1,7.12,20.8,-18,41.4,28.5,49.3
CC1(C)CCC(c2ccc(Cl)cc2)=C(CN2CCN(c3ccc(C(=O)NS(=O)(=O)c4ccc(N[C@H](CCN5CCOCC5)CSc5ccccc5)c(S(=O)(=O)C(F)(F)F)c4)cc3)CC2)C1 [Navitoclax (ABT-263)] (drug 10000 nM),0.832,3.74,5,33.3,32.7,27,14.2,-6.95,23.7,-9.03,-6.23,6.74,47.7,-1.41,38.4
Cc1cc(Nc2nc(N[C@@H](C)c3ncc(F)cn3)ncc2Cl)[nH]n1 [AZD1480] (drug 1000 nM),-12.1,-7.24,1.6,3.08,-2.54,13.1,6.46,-3.72,3.94,-6.08,-11.4,-2.51,8,-2.1,2.99
COc1ccccc1S(=O)(=O)Nc1ccc2c(c1)CN(C)C(=O)N2 [PFI-1] (drug 10000 nM),26.2,14,4.98,25.7,30.3,44.2,38.1,25.8,32.8,13.1,25.2,32.8,25.7,23.8,36.4
COc1c2occc2cc2ccc(=O)oc12 [Methoxsalen] (drug 10000 nM),-17.2,-5.34,-6.39,10.8,1.89,-6.63,1.6,-6.82,7.26,-8.57,1.74,-4.57,7.92,2.54,-4.99
C=CC[C@@H]1/C=C(\C)C[C@H](C)C[C@H](OC)[C@H]2O[C@@](O)(C(=O)C(=O)N3CCCC[C@H]3C(=O)O[C@H](/C(C)=C/[C@@H]3CC[C@@H](O)[C@H](OC)C3)[C@H](C)[C@@H](O)CC1=O)[C@H](C)C[C@@H]2OC [Tacrolimus (FK 506)] (drug 10000 nM),5.71,3.68,18.8,46.6,35,25.3,37.4,11.5,23.9,-3.64,16,8.63,39.4,15.5,27.2
C[C@]1(O)C[C@@H](c2nc(-c3ccc4ccc(-c5ccccc5)nc4c3)c3c(N)nccn32)C1 [Linsitinib (OSI-906)] (drug 10000 nM),28.3,33.2,38.1,3.26,7.88,52.5,62.4,16.3,29,14.6,20.1,-2.14,21.6,12.2,84.2
O=C1NC(=O)[C@@H](c2cn3c4c(cccc24)CCC3)[C@@H]1c1c[nH]c2ccccc12 [Tivatinib (ARQ 197)] (drug 1000 nM),43.2,7.95,-6.15,16.1,10.4,27.5,18.4,8.59,27.8,19.6,10.3,34.3,43.9,5.46,26.7
C[C@@H](Oc1cc(-c2cnn(C3CCNCC3)c2)cnc1N)c1c(Cl)ccc(F)c1Cl [Crizotinib] (drug 1000 nM),-19.1,-7.52,-0.481,4.07,7.24,0.562,6.55,0.924,2.79,-7.38,-5.41,-4.38,-15.8,0.927,0.597
C=C(c1ccc(C(=O)O)cc1)c1cc2c(cc1C)C(C)(C)CCC2(C)C [Bexarotene] (drug 10000 nM),13.7,14.2,19.2,-1.85,0.869,-1.91,5.85,9.24,9.65,15.4,8.83,1.74,20.9,-2.13,25.9
COc1cc(CCc2cc(NC(=O)c3ccc(N4CC(C)NC(C)C4)cc3)n[nH]2)cc(OC)c1 (stereo not given) [AZD4547] (drug 1000 nM),-22.2,8.39,-1.84,8.22,-5.95,-4.05,2.4,-8.6,-1.01,-14.5,-5.83,-7.84,5.15,1.86,-9.97
Oc1ncc(N(CCCl)CCCl)c(O)n1 [Uracil mustard] (drug 10000 nM),-4.46,-6.35,-4.85,6.37,6.63,-11.6,11.6,2.56,1.54,0.272,-3.68,-4.25,-3.71,3.73,-0.922
